Results published in patent US12702649B2, “Method of treating cystic fibrosis airway disease” (priority 2016, dated 2026).
Entries after “also recorded” stand apart in the source; their conditions may differ. Read-outs that look alike come from different tables or passages of the source.

What was measured:
[1] = test system: tracheal ASL of non-CF piglets; assay: Tracheal ASL pH of non-CF (wild type) newborn piglets after aerosolized buffer; assay type: in vivo, pig
Text: (§1) To measure pH in pigs in vivo, non-invasive dual lifetime referencing was used to interrogate a 3×3 mm planar optode (pH sensitive foil, PreSens GmbH) applied directly to the tracheal surface of anesthetized pigs (Pezzulo A A, Tang X X, Hoegger M J, Alaiwa M H, Ramachandran S, Moninger T O, et al. Reduced airway surface pH impairs bacterial killing in the porcine cystic fibrosis lung. Nature. 2012; 487(7405):109-13. Epub 2012/07/06. doi: 10.1038/nature11130. PubMed PMID: 22763554; PubMed Central PMCID: PMC3390761). pH-dependent polarized light phase shift was measured using a single channel pH meter (pH-1 mini; PreSens GmbH). The tip of the fiber optic pH meter was kept at the same constant distance from the tracheal surface in all samples and confirmed by recording the amplitude. Calibration before each set of measurements was done by measuring phase shift from flat filters soaked in standard pH buffers. All measurements were obtained in a humidified chamber at 37° C. and constant 5% CO2 to mimic physiologic conditions.
(§2) Pigs were initially sedated with Ketamine (20 mg/kg, IM injection) and Xylazine (2 mg/kg, IM injection) and anesthetized using Propofol (2 mg/kg, IV injection). The trachea was surgically exposed and accessed anteriorly. A small anterior window through the tracheal rings accessed a tracheal window to interventions and pH measurements. All studies obtained in a 100% humidified chamber at 37° C. and constant 5% CO2 to mimic physiologic conditions.

[2] = test system: S. aureus Xen-29
[3] = test system: human CF airway cultures; assay: ASL viscosity in human CF airway cultures; assay type: cell-based
Text: (A) Effect of saline or THAM on ASL viscosity in humanCF airway cultures. […] Data are mean±SEM. n=6 individual donors/group. * p<0.05, t-test.
Two approaches are used to investigate the viscoelastic properties of airway mucus. […] Second, in airway epithelial cell cultures from non-CF and CF newborn pig and human donors, mucus viscosity (±THAM) is estimated by measuring the diffusion of fluorescent FITC-dextran with a FRAP assay and ASL/mucus pH using the pH indicator SNARF-1 (FIG. 11D&13A). Viscosity is directly correlated to diffusion. If the viscosity is high, FITC-dextran will slowly diffuse to the photo-bleached ASL areas.

[4] = test system: S. aureus; assay: CF sputum bacterial killing, bacteria-coated grids assay; assay type: cell-based, S. aureus (SH1000); conditions: for bacterial killing in human CF sputum: grid assay, compared to saline
Experimental: Adults diagnosed with CF were recruited. Patients were asked to swallow saliva and to expectorate all secretions during routine clinic visits. Sputum plugs were visually identified and separated from saliva, weighed and stored at −70° C. in small, tightly sealed containers to minimize water loss under needed. […] To guarantee adequate mixing of sputum with the different solutions, the mixture was homogenized (Sonic Dismembrator Model 100, Fisher Scientific) for 30 seconds. All experiments were conducted in a humidified chamber with constant 5% CO2.
To interrogate individual bacteria killing in CF sputum or in pigs, bacteria-coated grids assay were used (Pezzulo A A, Tang X X, Hoegger M J, Alaiwa M H, Ramachandran S, Moninger T O, et al. Reduced airway surface pH impairs bacterial killing in the porcine cystic fibrosis lung. Nature. 2012; 487(7405):109-13. Epub 2012/07/06. doi: 10.1038/nature11130. PubMed PMID: 22763554; PubMed Central PMCID: PMC3390761; Abou Alaiwa M H, Reznikov L R, Gansemer N D, Sheets K A, Horswill A R, Stoltz D A, et al. pH modulates the activity and synergism of the airway surface liquid antimicrobials beta-defensin-3 and LL-37. Proceedings of the National Academy of Sciences of the United States of America. 2014; 111(52):18703-8. doi: 10.1073/pnas.1422091112. PubMed PMID: 25512526; PubMed Central PMCID: PMC4284593). Gold grids (200 mesh, Ted Pella) were functionalized using a series of intervention: 100 mM 11-mercaptoundecanoic acid (MUA in 100% alcohol, Aldrich) for 60 min at room temperature, 1:1 mixture of 100 mM N-ethyl-N-(3-[…]) carbodiimide) (EDC) and 100 mM N-hydroxysuccinimide (NETS) for 30 min at room temperature, 0.1 mg/ml Neutravidin (Sigma) at 37° C. for 1 hour.
Two different strains of S. aureus were used (SH1000 a human strain for CF sputum killing studies and SA43 a porcine strain for pig studies). Bacteria were grown to mid-log phase, incubated with 0.2 mg/ml N-hydroxysulphosuccinimide (sulpho-NHS)-biotin for 60 min at room temperature, quenched with 100 mM glycine to bind excess free biotin and allowed to attach to Neutravidin-coated grids for 15 minutes prior to the experiment.
After bacteria-coated grids were exposed to pig trachea for 5 minutes or CF sputum for 15 minutes, they were immediately rinsed in phosphate buffered saline and stained with SYTO9/propidium iodide (Live/Dead BacLight Bacterial viability assay, Invitrogen), mounted on slides and imaged on a laser-scanning confocal microscope (Olympus FV1000). Live (green) and dead (red) bacteria were automatically counted using Image-based Tool for Counting Nuclei (ITCN 1.6, UCSB Center for Bio-Image Informatics, UC San Barbara) an ImageJ (U.S. National Institutes of Health, Bethesda, Maryland, USA) plugin.

[5] = test system: nasal pH of healthy volunteers; assay: Nasal pH of healthy human volunteers after instillation; assay type: in vivo; conditions: for nasal pH: 250 μl of 0.3 M solution
Experimental: (§3) Prior to each study the pH probe was calibrated in buffer solutions of pH 6, 7 and 8 (VWR, West Chester, PA). Voltage was recorded with an Oakton pH6+ meter (Cole-Palmer, Vernon Hills, IL) and corrected to temperature. The probe was positioned at 6 cm from the most caudal aspect of the columella. The probe remained in position until the readings were stable. All measurements were taken from the right nostril and by the same operator. Subjects on intranasal medications (steroids or anticholinergics) or with history of nasal or sinus surgery were excluded from the study.

[6] = test system: human non-CF/CF airway epithelial cultures; conditions: THAM (1 μl), pH at 0 & 15 m
Experimental: FIGS. 15A-15B. […] (A) THAM (1 μl) was applied to human n non-CF/CF airway epithelial cultures. pH was measured at 0 & 15 m with SNARF. Data are mean±SEM. n=6 donors/group. * p<0.05, t-test.

[7] = test system: tracheal ASL of CF piglets; conditions: 15 minutes after aerosolized tromethamine
Text: as §1
as §2, with “All studies obtained in a 100% humidified chamber at 37° C. and constant 5% CO2 to mimic physiologic conditions.” left out

[8] = test system: mice
Text: FIGS. 14A-14G. […] (A) BAL pH measured 3.5 hr after THAM inhalation. Mice were aerosolized with THAM (10× dose used in our prior human studies) or water (ctrl) in a whole-body exposure chamber for 3.5 hrs/d (5 d total). 3 d later mice were euthanized/studied. (B) BAL-total cell cts. (C) BAL-% alveolar macrophages. (D) BAL-LDH activity. […] (F) Airway resistance (FlexiVent). […] (G) Lung histology (HE). Data are mean±SEM. n=4-10/group. * p<0.05, t-test. Some SEM bars are hidden in mean bars.

[9] = intravenous, cited from earlier work
[10] = Buffering capacity by acid titration; assay type: physicochemical; conditions: 0.3 M tromethamine titrated with 0.1 M HCl
Experimental: 100 mM HCl was delivered into 5 mL of buffer at a rate of 0.2 ml/min. Titration was carried out to endpoint of pH 3. The volume of HCl delivered was recorded and used to calculate the acid equivalents needed to […] pH by 1 unit or buffering capacity.

[11] = test system: non-CF newborn pig; conditions: PARI LC-PLUS nebulizer, distal mainstem bronchi
Text: THAM was aerosolized into a sedated, non-CF newborn pig with a PARI LC-PLUS® nebulizer, using a cone mask over the snout. After sedation, a pH probe was passed through the vocal cords and into the distal mainstem bronchi. ASL pH was continuously measured.

[12] = test system: human subjects; conditions: 24 h after aerosolized nasal delivery
Experimental: as §3

[13] = test system: nasal pH of subjects with cystic fibrosis (CF)
Experimental: as §3

[14] = test system: S. aureus; conditions: 15 minutes after aerosolized tromethamine, compared to NaCl
Experimental: Pigs were initially sedated with Ketamine (20 mg/kg, IM injection) and Xylazine (2 mg/kg, IM injection) and anesthetized using Propofol (2 mg/kg, IV injection). The trachea was surgically exposed and accessed anteriorly. A small anterior window through the tracheal rings accessed a tracheal window to interventions and pH measurements. All studies obtained in a 100% humidified chamber at 37° C. and constant 5% CO2 to mimic physiologic conditions. […]

[15] = test system: nasal epithelia of CF subjects
Text: Methods Mol Biol. 2011; 741:69-86. doi: 10.1007/978-1-61779-117-8_6. PubMed PMID: 21594779; PubMed Central PMCID: PMCPMC3760477).

[16] = test system: coagulase-negative; conditions: aerosolized, non-CF subjects; cited from earlier work

Structure (SMILES): O=C([O-])O.[Na+] [NaHCO3]
- tracheal ASL pH ([1]; 250 μl of 200 mM NaHCO3 aerosolized onto exposed trachea): alkalinized ASL pH
- time for ASL pH to return to baseline ([1]; NaHCO3/HCO3− aerosol, non-CF piglet trachea): ≤ 30 minutes
- effect of increasing HCO3− concentration on hBD-3 antimicrobial activity ([2]; constant pH 7.5, absence of Ca2+ & Mg2+, 1 μg/ml hBD-3, NaHCO3 10-80 mM): slightly inhibited
- effect of increasing HCO3− concentration on LL-37 antimicrobial activity ([2]; constant pH 7.5, absence of Ca2+ & Mg2+, 100 μm/ml LL-37, NaHCO3 10-80 mM): slightly inhibited
- effect of increasing HCO3− concentration on hBD-3 antimicrobial activity ([2]; constant pH 7.5, presence of 1 mM Ca2+ & 1 mM Mg2+, 5 μg/ml hBD-3): inhibited
- effect of increasing HCO3− concentration on LL-37 antimicrobial activity ([2]; constant pH 7.5, presence of 1 mM Ca2+ & 1 mM Mg2+, 100 μm/ml LL-37): inhibited
- ASL viscosity [3]: reduced viscosity
- bacterial killing in human CF sputum [4]: improved bacterial killing to non-CF levels
- CF sputum ability to kill S. aureus ([4]; sputum mixed 1:1 v/v with 200 mM NaHCO3, compared to equimolar NaCl, grids recovered after 15 minutes): increased the CF sputum ability to kill S. aureus
- time for nasal pH to return to baseline ([5]; 250 μl of 2% (238 mM) NaHCO3): ≤ 60 minutes
- nasal ASL pH ([5]; 250 μl of 2% (238 mM) NaHCO3 aerosolized into the nose): increased ASL pH
- effect of a higher concentration on the duration of the rise in nasal pH ([5]; NaHCO3 increased to 5% or 7%): no additional effect

Structure (SMILES): NC(CO)(CO)CO [tromethamine, tris(hydroxymethyl)aminomethane]
- alkalinization of CF vs non-CF epithelia [6]: Alkalinizes CF Epithelia Greater than Non-CF
- tracheal ASL pH [7]: increased pH
- airway (BAL) pH ([8]; BAL pH 3.5 hr after THAM inhalation): raised the airway pH
- BAL other proinflammatory cytokines, THAM vs water control ([8]; mouse, in vivo): no difference
- clinical signs, gross pathology, BAL cell counts/cytokines/LDH, bronchoconstriction, histopathology ([8]; mouse, in vivo): no adverse treatment related findings
- tolerability of THAM exposure ([8]; mouse, in vivo): well tolerated
- persistence of serum alkalinizing effect ([9]; serum): 16 to 48 h
- half-life when given intravenously [9]: long half-life
- tracheal ASL pH immediately after administration ([1]; 250 μl 0.3M tromethamine): raised pH
- tracheal ASL pH at 60 minutes ([1]; 250 μl 0.3M tromethamine, 60 minutes): still higher than baseline
- effect on hBD-3 antimicrobial activity ([2]; 10 mM tromethamine (pH 8.65) vs 10 mM xylitol (pH 7.02), 1 μg/ml hBD-3, ionic strength 125 mM): enhanced
- effect on LL-37 antimicrobial activity ([2]; 10 mM tromethamine (pH 8.65) vs 10 mM xylitol (pH 7.02), 10 μg/ml LL-37, ionic strength 125 mM): enhanced
- additional buffering range at lower pH values [10]: 3-6 pH
- ASL viscosity [3]: reduced viscosity
- airway alkalinization over time [11]: Prolonged Airway Alkalinization
- adverse effects reported [12]: no adverse effects
- nasal pH ([13]; 250 μl tromethamine): increased nasal pH
- duration of increased nasal pH ([13]; 250 μl tromethamine, 30 minutes was the total duration of the experiment): 30 minutes
- pH change at 30 min as share of the maximal pH response ([13]; 30 min after THAM aerosolization into the nose of people with CF): ~ 80%
- ASL bacterial killing ([14]; listed as THAM): acutely restored ASL bacterial killing
- ASL bacterial killing ([14]; listed as Tromethamine): enhanced bacterial killing
- bacterial killing in human CF sputum [4]: improved bacterial killing to non-CF levels; also recorded: acutely restored ASL bacterial killing
- ability of CF sputum to kill S. aureus ([4]; sputum mixed 1:1 (w/v) with 300 mM tromethamine ± 1197 mM (7%) NaCl, compared to hypertonic saline alone): increased the ability of CF sputum to kill S. aureus
- nasal pH [5]: alkalinized the nasal pH
- pH change at 30 min as share of the maximal pH response ([5]; 30 min after THAM aerosolization, non-CF noses): 30%
- nasal voltage ([15]; baseline vs 30 min after 250 μl 0.3 M tromethamine): no effect
- epithelial barrier integrity ([15]; inferred from nasal voltage): no disruption

Structure (SMILES): OC[C@@H](O)[C@H](O)[C@@H](O)CO [xylitol]
- nasal pH [5]: no effect
- nasal coagulase-negative S. aureus colonization [16]: decreased
